Experimental data reported in paper PMC8148004, “Distinction between 2′- and 3′-Phosphate Isomers of a Fluorescent NADPH Analogue Led to Strong Inhibition of Cancer Cells Migration” (Antioxidants, 2021).

Tests used:
[1] = target: T1, NOX2 C-terminal (gp91phox) (Homo sapiens, UniProt P04839); assay: fluorescence enhancement titration of the ligand with recombinant protein; format: binding
T1 construct: gene CYBB; C-terminal (cytosolic part), residues 300–580, His-tagged, E. coli
T1 sequence (P04839 300-570): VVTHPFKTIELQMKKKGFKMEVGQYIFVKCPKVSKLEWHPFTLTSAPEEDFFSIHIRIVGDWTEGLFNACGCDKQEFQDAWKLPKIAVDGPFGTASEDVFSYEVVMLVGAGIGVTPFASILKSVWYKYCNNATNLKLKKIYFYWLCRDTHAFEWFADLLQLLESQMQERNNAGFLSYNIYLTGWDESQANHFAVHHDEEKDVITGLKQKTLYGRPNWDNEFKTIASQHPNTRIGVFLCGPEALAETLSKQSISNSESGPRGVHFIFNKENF

[2] = target: T1, NOX2 C-terminal (gp91phox); assay: fluorescence enhancement titration of the ligand with recombinant protein; also decreased NADPH consumption; format: binding
eNOS = target: T2, eNOS (Bos taurus, UniProt P29473); assay: oxyhemoglobin assay for NO formation; format: biochemical
T2 construct: gene NOS3; full length recombinant bovine eNOS, E. coli BL21 (DE3); with calmodulin
T2 sequence (P29473 2-1205): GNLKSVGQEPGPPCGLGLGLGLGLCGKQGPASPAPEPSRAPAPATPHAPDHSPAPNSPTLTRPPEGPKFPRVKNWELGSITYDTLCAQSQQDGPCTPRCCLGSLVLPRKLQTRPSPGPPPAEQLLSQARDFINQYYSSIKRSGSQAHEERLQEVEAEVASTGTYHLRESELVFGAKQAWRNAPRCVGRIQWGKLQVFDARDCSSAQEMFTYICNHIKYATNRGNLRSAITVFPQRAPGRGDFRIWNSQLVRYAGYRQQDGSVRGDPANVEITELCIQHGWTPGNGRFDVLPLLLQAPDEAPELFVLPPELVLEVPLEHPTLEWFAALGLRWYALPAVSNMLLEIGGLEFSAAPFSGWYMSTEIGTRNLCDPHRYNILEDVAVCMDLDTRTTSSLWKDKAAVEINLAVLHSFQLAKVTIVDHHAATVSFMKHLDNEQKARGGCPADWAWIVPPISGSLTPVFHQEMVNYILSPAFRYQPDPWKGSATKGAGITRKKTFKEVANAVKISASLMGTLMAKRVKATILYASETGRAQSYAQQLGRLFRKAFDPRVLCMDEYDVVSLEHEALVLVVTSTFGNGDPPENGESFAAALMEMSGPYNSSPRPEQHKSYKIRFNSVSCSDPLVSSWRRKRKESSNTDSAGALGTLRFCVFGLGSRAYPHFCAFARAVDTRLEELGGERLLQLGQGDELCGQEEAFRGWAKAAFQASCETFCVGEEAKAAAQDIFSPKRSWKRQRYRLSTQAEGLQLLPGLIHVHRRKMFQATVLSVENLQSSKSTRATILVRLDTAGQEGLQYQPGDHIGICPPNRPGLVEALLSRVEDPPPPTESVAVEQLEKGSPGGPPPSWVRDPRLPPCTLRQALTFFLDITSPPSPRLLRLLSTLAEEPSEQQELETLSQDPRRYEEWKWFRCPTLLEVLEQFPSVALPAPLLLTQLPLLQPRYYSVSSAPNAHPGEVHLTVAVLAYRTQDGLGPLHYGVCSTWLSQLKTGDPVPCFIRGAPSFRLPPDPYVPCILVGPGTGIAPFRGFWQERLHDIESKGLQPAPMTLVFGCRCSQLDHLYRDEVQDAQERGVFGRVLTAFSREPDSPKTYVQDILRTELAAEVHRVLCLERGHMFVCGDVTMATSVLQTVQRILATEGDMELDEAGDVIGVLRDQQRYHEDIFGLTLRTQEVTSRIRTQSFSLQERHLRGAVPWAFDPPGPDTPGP

| Kd [1] [µM] | Kd [2] [µM] | IC50 (eNOS) [µM] | Structure (SMILES) |
| --- | --- | --- | --- |
| 1.14 ± 0.09 | – | – | CCN(CCNC(=O)[C@H]1O[C@@H](n2cnc3c(N)ncnc32)[C@H](O)[C@@H]1OP(=O)(O)O)c1ccc(/C=C/c2ccc([N+](=O)[O-])cc2)cc1 [NS1-3] |
| – | 0.67 ± 0.11 | ~30 | CCN(CCNC(=O)[C@H]1O[C@@H](n2cnc3c(N)ncnc32)[C@H](OP(=O)(O)O)[C@@H]1O)c1ccc(/C=C/c2ccc([N+](=O)[O-])cc2)cc1 [NS1-2] |
